# Tests used:
# [1] = test system: intestinal cancer cells Caco2; test: apoptosis, AnnexinV-FITC/PI flow cytometry; assay type: cell-based; conditions: 4 mg/L, 24 h
# Description: (§1) The tumor cells growing in the logarithmic phase were digested with trypsin, collected by centrifugation to prepare a suspension, the cells were counted and adjusted to a certain concentration (6×10^5 cells per mL for AGS, T47D, Caco2, BCPAP, GES, HUVEC; 5×10^5 cells per mL for HepG2, MDA-MB-231, BGC-823, A549, PC3, L02; 3×10^5 cells per mL for 143B, HOS, U2, SGC-7901, Hela, BV-2; 1.8×10^6 cells per mL for WI-38), and the cells at a certain concentration were transferred to a 6-well plate at a concentration of 1 mL per well. The cells were cultured in a cell culture incubator for 12 h to allow the cells to adhere to the wall. The corresponding dosages of a quercetin 3,3′-dimethyl ether solution were added (the dosage of osteosarcoma cells was 143B: 4 mg/L, HOS: 4 mg/L, U2: 10 mg/L; the dosage of breast cancer cells was MDA-MB-231: 2 mg/L, T47D: 3 mg/L; the dosage of gastric cancer cells was SGC7901: 6 mg/L, BGC823: 5 mg/L, AGS: 3 mg/L; the dosage of cervical cancer Hela cells was 2 mg/L; the dosage of lung cancer cell A549 was 3 mg/L; the dosage of intestinal cancer cells Caco2 was 4 mg/L; the dosage of mouse glioma BV2 was 4 mg/L; the dosage of human prostate cancer cells PC3 was 6 mg/L; and the dosage of human thyroid cancer cells BCPAP was 2 mg/L). While DMSO was used as a solvent control, and then incubated for 24 h. After acting for 24 h, the cells were collected by centrifugation at 300 g, 4° C. for 5 min, a supernatant was discarded, and the cells were washed twice with pre-cooled PBS, each time with centrifugation at 300 g, 4° C. for 5 min. (1˜5)×10^5 cells were collected and resuspended in […] 1× BindingBuffer. 5 μl of AnnexinV-FITC and 5 μl of PI were added, and mixed well gently. The cells were reacted at room temperature for 10 min in the dark. 400 μl of 1× Binding Buffer was added, mixed well, and the samples were detected by flow cytometry within 1 h. The analysis was conducted according to a standard detection procedure of flow cytometry, at an excitation wavelength of 488 nm, and 20,000 cells were counted, and obtained results were analyzed with cell cycle fitting software ModFit.
# [2] = test system: osteosarcoma cells HOS; test: apoptosis, AnnexinV-FITC/PI flow cytometry; assay type: cell-based; conditions: 4 mg/L, 24 h
# Description: as §1
# [3] = test system: cervical cancer Hela cells; test: apoptosis, AnnexinV-FITC/PI flow cytometry; assay type: cell-based; conditions: 2 mg/L, 24 h
# Description: as §1
# [4] = test system: mouse glioma BV2; test: apoptosis, AnnexinV-FITC/PI flow cytometry; assay type: cell-based; conditions: BV-2; 4 mg/L; 24 h
# Description: as §1
# [5] = test system: HepG2; test: apoptosis, AnnexinV-FITC/PI flow cytometry; assay type: cell-based; conditions: 24 h, dosage not given
# Description: as §1
# [6] = test system: human prostate cancer cells PC3; test: apoptosis, AnnexinV-FITC/PI flow cytometry; assay type: cell-based; conditions: 6 mg/L, 24 h
# Description: as §1
# [7] = test system: gastric cancer cells BGC-823; test: apoptosis, AnnexinV-FITC/PI flow cytometry; assay type: cell-based; conditions: 5 mg/L, 24 h
# Description: as §1
# [8] = test system: gastric cancer cells AGS; test: apoptosis, AnnexinV-FITC/PI flow cytometry; assay type: cell-based; conditions: 3 mg/L, 24 h
# Description: as §1
# [9] = test system: breast cancer cells MDA-MB-231; test: apoptosis, AnnexinV-FITC/PI flow cytometry; assay type: cell-based; conditions: 2 mg/L, 24 h
# Description: as §1
# [10] = test system: lung cancer cell A549; test: apoptosis, AnnexinV-FITC/PI flow cytometry; assay type: cell-based; conditions: 3 mg/L, 24 h
# Description: as §1
# [11] = test system: osteosarcoma cells 143B; test: apoptosis, AnnexinV-FITC/PI flow cytometry; assay type: cell-based; conditions: 4 mg/L, 24 h
# Description: as §1
# [12] = test system: breast cancer cells T47D; test: apoptosis, AnnexinV-FITC/PI flow cytometry; assay type: cell-based; conditions: 3 mg/L, 24 h
# Description: as §1
# [13] = test system: HepG2 transplanted tumors; test: proliferation of HepG2 transplanted tumors in nude mice in vivo; parameters: species or system BALB/c nude mice; conditions: 50 mg/kg bw·d intraperitoneal
# Experimental: BALB/c nude mice (5 to 6 weeks old), weighing 19 g to 22 g, were purchased from Shanghai Experimental Animal Center, Chinese Academy of Sciences. HepG2 cells were collected in a serum-free DMEM medium to make a cell suspension, and then the cell suspension was injected into an underarm area of each mouse, approximately 2.0×10^6 cells, one site per mouse. All mice were bred in the Experimental Animal Center of Zhejiang University, under the environment of 23° C. to 25° C., humidity 50% to 60%, and cycle of 12 h light illumination/dark 12 h. After tumor formation, the mice were randomly divided into 3 groups with 7 mice in each group. The model group was given saline by intraperitoneal injection; the positive drug group was given tegafur at 10 mg/kg bw·d by intraperitoneal injection; the treatment group was intraperitoneally injected with the quercetin 3,3′-dimethyl ether at 50 mg/kg bw·d. According to the change of tumor volume, after the tumor formed, intraperitoneal injection was conducted every 1 d to 2 d, the tumor volume was measured, and the body weight of the mice was weighed. When there was a significant difference in tumor volume between different treatment groups, the mice were sacrificed by cervical dislocation, and the tumor tissue was carefully peeled off, weighed, and calculated. The formulas were: tumor formation rate (%)=(number of tumor-forming mice in treatment group/number of tumor-forming mice in inoculation group)×100; tumor inhibition rate (%)=(average tumor weight in control group (g)−average tumor weight in administration group (g))/average tumor weight in control group (g)×100. Serum, liver, spleen, and kidney were collected and weighed.
# [14] = test system: HepG2 cells; test: scratch test, metastasis capacity; assay type: cell-based; conditions: 1 mg/L, after 1 d (24 h) of incubation
# Experimental: HepG2 cells with a cell density of 5×10^5/mL were plated on a 6-well plate (1 mL per well), added to a DMEM medium containing 10% fetal calf serum, and cultured overnight to form a monolayer of cells. A horizontal scratch was scratched on the monolayer of cells with a pipette tip of 200 μL, washed with PBS 3 times, added into a DMEM medium containing 10% fetal bovine serum, and then added with 1 mg/L of a quercetin 3,3′-dimethyl ether solution, while DMSO was used as a solvent control, and then incubated for 24 h.
compound,measurement,setting,value
"COc1cc(-c2oc3cc(O)cc(O)c3c(=O)c2OC)ccc1O [Quercetin 3,3′-dimethyl ether, quercetin 3,3′-dimethyl ether]",Treatment apoptosis ratio %,[1],22.81 ± 3.72 *^ %
same,Treatment apoptosis ratio %,[2],23.09 ± 4.36 %
same,Treatment apoptosis ratio %,[3],20.05 ± 4.31 %
same,Treatment apoptosis ratio %,[4],18.65 ± 0.39 %
same,Treatment apoptosis ratio %,[5],32.36 ± 5.26 %
same,Treatment apoptosis ratio %,[6],21.13 ± 5.11 %
same,Treatment apoptosis ratio %,[7],26.68 ± 3.45 %
same,Treatment apoptosis ratio %,[8],29.47 ± 2.25 %
same,Treatment apoptosis ratio %,[9],29.85 ± 4.49 %
same,Treatment apoptosis ratio %,[10],20.28 ± 3.23 %
same,Treatment apoptosis ratio %,[11],24.72 ± 2.82 %
same,Treatment apoptosis ratio %,[12],16.98 ± 1.37 %
same,"tumor weight, lower than that of the control group",[13],52.19%
same,tumor volume,"[13]; day 24, 10 injections, HepG2 nude mice",284.19±85.47 mm^3
same,tumor weight,[13]; tumor peeled off at sacrifice,194.57 ± 75.45 mg
same,intercellular space (scratch) versus control group,[14],significantly higher

# — US20240173289A1, “USE OF OXYMETHYL-MODIFIED DERIVATIVE OF QUERCETIN IN PREPARATION OF DRUG FOR INHIBITING TUMOR CELL PROLIFERATION” (ZHEJIANG UNIVERSITY, priority 2021, published 2024)
